Tests used:
Assay in all cases: relative viability (nuclei count vs DMSO), 5 days (fraction); higher = more cells survive
[1] = tested on: NCI-H1666
Outline: (§1)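 Each reported value is a median over duplicate plates. It expresses relative viability: treated-well nuclei count divided by vehicle-well nuclei count. Lung cancer cell lines in 1536-well plates were dosed by pin tool a day after seeding, alone with one drug or with a fixed anchor-drug dose plus five library-drug doses (not always all listed) in √10 steps, and nuclei were counted after 5 days.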

[2] = tested on: EPLC-272H
Outline: as §1

[3] = tested on: NCI-H647
Outline: as §1

[4] = tested on: PC-14
Outline: as §1

[5] = tested on: NCI-H1915
Outline: as §1

[6] = tested on: NCI-H661
Outline: as §1

[7] = tested on: H3255
Outline: as §1

[8] = tested on: ChaGo-K-1
Outline: as §1

[9] = tested on: NCI-H23
Outline: as §1

[10] = tested on: COR-L 105
Outline: as §1

[11] = tested on: NCI-H2347
Outline: as §1

[12] = tested on: NCI-H2405
Outline: as §1

[13] = tested on: LCLC-97TM1
Outline: as §1

[14] = tested on: 201T
Outline: as §1

[15] = tested on: HCC-827
Outline: as §1

[16] = tested on: RERF-LC-KJ
Outline: as §1

[17] = tested on: NCI-H650
Outline: as §1

[18] = tested on: NCI-H520
Outline: as §1

[19] = tested on: HCC-78
Outline: as §1

[20] = tested on: NCI-H2126
Outline: as §1

[21] = tested on: LC-2-ad
Outline: as §1

[22] = tested on: NCI-H2087
Outline: as §1

O=c1cc(N2CCOCC2)oc2c(-c3cccc4c3sc3ccccc34)cccc12 + COc1cccc2cc(-c3nc([C@H]4CC[C@H](C(=O)O)CC4)n4ncnc(N)c34)[nH]c12 [OSI-027] (partner 0.5 µM)
relative viability ([1]; first compound 0.01 µM): 0.864 | relative viability ([1]; first compound 0.03162 µM): 0.922 | relative viability ([1]; first compound 0.1 µM): 0.847 | relative viability ([1]; first compound 0.3162 µM): 0.839 | relative viability ([1]; first compound 1 µM): 0.79 | relative viability ([2]; first compound 0.01 µM): 0.33 | relative viability ([2]; first compound 0.03162 µM): 0.296 | relative viability ([2]; first compound 0.3162 µM): 0.332 | relative viability ([2]; first compound 1 µM): 0.314 | relative viability ([3]; first compound 0.01 µM): 0.689 | relative viability ([3]; first compound 0.03162 µM): 0.739 | relative viability ([3]; first compound 0.1 µM): 0.302 | relative viability ([3]; first compound 0.3162 µM): 0.747 | relative viability ([3]; first compound 1 µM): 0.745 | relative viability ([4]; first compound 0.01 µM): 0.954 | relative viability ([4]; first compound 0.03162 µM): 0.858 | relative viability ([4]; first compound 0.1 µM): 0.74 | relative viability ([4]; first compound 0.3162 µM): 1.04 | relative viability ([4]; first compound 1 µM): 0.795 | relative viability ([5]; first compound 0.01 µM): 0.672 | relative viability ([5]; first compound 0.03162 µM): 0.796 | relative viability ([5]; first compound 0.1 µM): 0.663 | relative viability ([5]; first compound 0.3162 µM): 0.647 | relative viability ([5]; first compound 1 µM): 0.65 | relative viability ([6]; first compound 0.01 µM): 0.692 | relative viability ([6]; first compound 0.03162 µM): 0.738 | relative viability ([6]; first compound 0.1 µM): 0.772 | relative viability ([6]; first compound 0.3162 µM): 0.756 | relative viability ([6]; first compound 1 µM): 0.708 | relative viability ([7]; first compound 0.01 µM): 0.659 | relative viability ([7]; first compound 0.03162 µM): 0.503 | relative viability ([7]; first compound 0.1 µM): 0.584 | relative viability ([7]; first compound 0.3162 µM): 0.668 | relative viability ([7]; first compound 1 µM): 0.536 | relative viability ([8]; first compound 0.01 µM): 0.488 | relative viability ([8]; first compound 0.03162 µM): 0.681 | relative viability ([8]; first compound 0.1 µM): 0.363 | relative viability ([8]; first compound 0.3162 µM): 0.706 | relative viability ([8]; first compound 1 µM): 0.628 | relative viability ([9]; first compound 0.01 µM): 0.641 | relative viability ([9]; first compound 0.03162 µM): 0.633 | relative viability ([9]; first compound 0.3162 µM): 0.757 | relative viability ([9]; first compound 1 µM): 0.723 | relative viability ([10]; first compound 0.01 µM): 0.668 | relative viability ([10]; first compound 0.03162 µM): 0.825 | relative viability ([10]; first compound 0.1 µM): 0.656 | relative viability ([10]; first compound 0.3162 µM): 0.786 | relative viability ([10]; first compound 1 µM): 0.553 | relative viability ([11]; first compound 0.01 µM): 0.503 | relative viability ([11]; first compound 0.03162 µM): 0.392 | relative viability ([11]; first compound 0.1 µM): 0.522 | relative viability ([11]; first compound 0.3162 µM): 0.42 | relative viability ([11]; first compound 1 µM): 0.461 | relative viability ([12]; first compound 0.01 µM): 0.717 | relative viability ([12]; first compound 0.03162 µM): 0.615 | relative viability ([12]; first compound 0.1 µM): 0.564 | relative viability ([12]; first compound 0.3162 µM): 0.663 | relative viability ([12]; first compound 1 µM): 0.685 | relative viability ([13]; first compound 0.01 µM): 0.583 | relative viability ([13]; first compound 0.03162 µM): 0.684 | relative viability ([13]; first compound 0.1 µM): 0.491 | relative viability ([13]; first compound 0.3162 µM): 0.612 | relative viability ([13]; first compound 1 µM): 0.555 | relative viability ([14]; first compound 0.01 µM): 0.811 | relative viability ([14]; first compound 0.03162 µM): 0.832 | relative viability ([14]; first compound 0.1 µM): 0.715 | relative viability ([14]; first compound 0.3162 µM): 0.721 | relative viability ([14]; first compound 1 µM): 0.645 | relative viability ([15]; first compound 0.01 µM): 0.853 | relative viability ([15]; first compound 0.03162 µM): 0.813 | relative viability ([15]; first compound 0.1 µM): 0.744 | relative viability ([15]; first compound 0.3162 µM): 0.772 | relative viability ([15]; first compound 1 µM): 0.791 | relative viability ([16]; first compound 0.01 µM): 0.617 | relative viability ([16]; first compound 0.03162 µM): 0.635 | relative viability ([16]; first compound 0.1 µM): 0.6 | relative viability ([16]; first compound 0.3162 µM): 0.615 | relative viability ([16]; first compound 1 µM): 0.555 | relative viability ([17]; first compound 0.03162 µM): 0.591 | relative viability ([17]; first compound 0.1 µM): 0.391 | relative viability ([17]; first compound 0.3162 µM): 0.598 | relative viability ([17]; first compound 1 µM): 0.493 | relative viability ([18]; first compound 0.01 µM): 0.284 | relative viability ([18]; first compound 0.03162 µM): 0.299 | relative viability ([18]; first compound 0.1 µM): 0.235 | relative viability ([18]; first compound 0.3162 µM): 0.229 | relative viability ([18]; first compound 1 µM): 0.323 | relative viability ([19]; first compound 0.01 µM): 0.369 | relative viability ([19]; first compound 0.03162 µM): 0.362 | relative viability ([19]; first compound 0.1 µM): 0.297 | relative viability ([19]; first compound 0.3162 µM): 0.347 | relative viability ([19]; first compound 1 µM): 0.342 | relative viability ([20]; first compound 0.01 µM): 0.709 | relative viability ([20]; first compound 0.03162 µM): 0.707 | relative viability ([20]; first compound 0.1 µM): 0.706 | relative viability ([20]; first compound 0.3162 µM): 0.772 | relative viability ([20]; first compound 1 µM): 0.702 | relative viability ([21]; first compound 0.01 µM): 0.903 | relative viability ([21]; first compound 0.03162 µM): 0.993 | relative viability ([21]; first compound 0.1 µM): 0.877 | relative viability ([21]; first compound 0.3162 µM): 0.915 | relative viability ([21]; first compound 1 µM): 0.785 | relative viability ([22]; first compound 0.01 µM): 0.569 | relative viability ([22]; first compound 0.03162 µM): 0.637 | relative viability ([22]; first compound 0.1 µM): 0.544 | relative viability ([22]; first compound 0.3162 µM): 0.416 | relative viability ([22]; first compound 1 µM): 0.599
